From patent US20060217345A1, “Beta-L-nucleosides and use thereof as pharmaceutical agents for the treatment of viral diseases” (priority 2003, published 2006)
Read-outs that look alike come from different tables or passages of the source.

Key:
HBV replication = conditions: 5-modified β-L-cytosine nucleosides; compares with compounds with non-modified bases; cited from earlier work
[1] = tested on: HBV replication in HepG2 2.2.15 cells; test: Antiviral activity: reduction of extracellular HBV DNA in HepG2 2.2.15 cells; assay type: cell-based, hepatitis B virus; conditions: read-out: ED50 values (concentration resulting in 50% reduction of HBV DNA in the medium of the cells)
Protocol: The antiviral efficacy of the compounds of at least one embodiment was investigated on HepG2 2.2.15 cells, a human hepatoblastoma cell line which has the replication-competent HBV genome stably integrated therein and produces infectious progeny viruses in a productive manner (Sells et al., Proc Natl Acad Sci USA 1987, 84: 1005-1009).
The above cells were cultured under standardized conditions as specified by Korba and Gerin, and the amount of extracellular viral DNA was determined (Korba et al., Antiviral Res 1992, 19: 55-70).
Following passaging, the HepG2 2.2.15 cells were seeded at a density of about 60% in 12-well plates and cultured to confluence in 10% FBS Dulbecco MEM. Thereafter, the medium was changed to 2% FBS, and the cells were cultured for another 24 hours.
After another change of medium, the cells were treated with varying concentrations of compounds according to at least one embodiment. Every 24 hours the compounds were re-added together with the medium. […]
Following treatment of the culture supernatants with proteinase K, the extracellular viral DNA was amplified by means of PCR using the following primers (forward: 5′-CTCCAGTTCAGGAACAGTAAACCC-3′; reverse: 5′-TTGTGAGCTCAGAAAGGCCTTGTAAGTTGGCG-3′. The PCR products were separated on 1% agarose, stained with ethidium bromide and quantified using a Fluor-S™ Multimager (Biorad).
For calibration of the PCR reaction, serial dilutions of the pUC19 HBV and pTHBV plasmids with known genome equivalents (GE) were used, resulting in a lower detection limit of about 10^3 GE and a linearity between 10^3 and 10^5 GE.

HBV DNA polymerase = target: T1, HBV DNA polymerase (Hepatitis B virus genotype D subtype ayw, UniProt P03156); test: Inhibition of endogenous HBV DNA polymerase activity (3H-dCTP incorporation); assay type: biochemical; conditions: nucleoside triphosphates; purified virus particles from patient serum; 0.7 μM dCTP; two-hour incubation at 37° C.; read-out: IC50 (50% inhibition of the HBV DNA polymerase activity)
T1 construct: 30 μl of polymerase batch included about 2-4×10^8 purified virus particles (lysed beforehand); from tissue; host or cells: Serum of patients infected with hepatitis B virus (Charité, Berlin); virus particles purified through a saccharose gradient and lysed
Protocol: Synthesis and purification of the triphosphates of β-L-5-methylcytidine nucleosides were effected according to well-known methods (Yoshikawa et al., Tetradedron Lett 1967, 50: 5065-5068; Hoard et Ott, J Am Chem Soc 1965, 87: 1785-1788).
To determine the endogenous HBV DNA polymerase activity, about 60 ml of serum from patients with hepatitis B virus infections from Charité, Berlin (>10^7 HBV particles/ml), was centrifuged at 3000 rpm, followed by sedimentation of the virus particles at 25,000 g, 60 min, taking up in 7 ml of TKM buffer (50 mM Tris-HCl, pH 7.5, 50 mM KCl, 5 mM MgCl2), and centrifugation through a saccharose gradient (0.3 M, 0.6 M, 0.9 M saccharose in 10 ml of TKM buffer each time) at 25,000 g for 20 hours. The purified virus sediment was suspended in 400 μl of TKM using ultrasound, divided in aliquots and frozen at −80° C. (Davies et al., Antiviral Res 1996, 30: 133-145).
30 μl of polymerase batch included about 2-4×10^8 purified virus particles (lysed beforehand in 6% β-mercaptoethanol, 10% Igepal for 15 min at room temperature), 42 mM Tris-HCl, (pH 7.5), 34 mM MgCl2, 340 mM KCl, 22 mM β-mercaptoethanol, 0.4% Igepal, 70 μM TTP, dATP, dGTP and 1 μCi ^3H-dCTP (=0.7 μM dCTP) (Matthes et al., Antimicrob Agents & Chemoth 1991, 35: 1254-1257) and varying concentrations of β-L-5-methylcytidine nucleoside triphosphates.
Following a two-hour incubation at 37° C., 20 μl of each batch was placed on paper filter, washed 5 times with 5% trichloroacetic acid and 0.1% Na pyrophosphate, and the ^3H-dCTP incorporated in the HBV DNA was subsequently measured in a Liquid Scintillation Counter.
Using the concentration-dependent inhibition curves of HBV DNA synthesis, the concentration of β-L-5-methylcytidine nucleoside triphosphates resulting in 50% inhibition of the HBV DNA polymerase activity was determined. The IC50 values are illustrated in Table 2.

HL-60 cells = test: Cytotoxicity: inhibition of proliferation of HL-60 cells; assay type: cell-based, human; conditions: RPMI medium, incubated for two days
Protocol: (§1) To this end, established cells of a human myeloid leukemia (HL-60) in RPMI medium, and the above-mentioned HepG2 cells in Dulbecco MEM, respectively, were incubated for two days using varying concentrations of compounds, and the proliferation rate of the cells was subsequently determined. The data was used to determine the concentration of compounds resulting in 50% inhibition of proliferation (CD50).

HepG2 cells = test: Cytotoxicity: inhibition of proliferation of HepG2 cells; assay type: cell-based, human; conditions: Hep G2 cells, Dulbecco MEM, incubated for two days
Protocol: as §1

HBV infections = conditions: treatment of HBV infections; cited from earlier work
[2] = HepG2 2.2.15 cells, extracellular HBV DNA by PCR, after 9 days of incubation

T1 sequence (P03156 whole entry): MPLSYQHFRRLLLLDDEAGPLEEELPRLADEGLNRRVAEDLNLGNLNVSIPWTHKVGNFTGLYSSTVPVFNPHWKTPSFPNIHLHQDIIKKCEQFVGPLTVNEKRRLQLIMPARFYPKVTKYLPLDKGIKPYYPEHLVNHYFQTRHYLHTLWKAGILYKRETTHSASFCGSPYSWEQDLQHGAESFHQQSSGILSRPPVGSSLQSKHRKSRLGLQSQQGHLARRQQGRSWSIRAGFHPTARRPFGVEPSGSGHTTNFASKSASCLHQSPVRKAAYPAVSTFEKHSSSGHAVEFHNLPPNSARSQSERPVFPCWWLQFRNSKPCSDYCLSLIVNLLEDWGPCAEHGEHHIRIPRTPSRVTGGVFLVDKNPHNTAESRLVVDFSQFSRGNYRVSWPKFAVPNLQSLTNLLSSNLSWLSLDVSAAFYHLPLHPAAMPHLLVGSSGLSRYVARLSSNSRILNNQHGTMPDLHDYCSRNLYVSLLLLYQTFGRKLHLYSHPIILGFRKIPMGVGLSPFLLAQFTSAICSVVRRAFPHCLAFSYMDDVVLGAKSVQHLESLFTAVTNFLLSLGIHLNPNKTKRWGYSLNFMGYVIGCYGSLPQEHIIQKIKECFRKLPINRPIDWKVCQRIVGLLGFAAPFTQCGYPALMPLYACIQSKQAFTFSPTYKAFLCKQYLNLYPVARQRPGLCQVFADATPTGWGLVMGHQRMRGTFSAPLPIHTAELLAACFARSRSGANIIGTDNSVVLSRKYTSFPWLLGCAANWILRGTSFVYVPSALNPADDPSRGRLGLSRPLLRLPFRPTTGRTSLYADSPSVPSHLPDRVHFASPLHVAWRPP

Q: Which “effect with respect to HBV replication, as described in the literature” value (“effect with respect to HBV replication” below) (HBV replication) does the source give for Nc1nc(=O)n(C2OC(CO)C=C2F)cc1F [L-2′F-ddeFC, β-L-2′,3′-dideoxy-2′,3′-didehydro-2′-fluoro-5-fluorocytidine] here?
A: equally effective

Q: With Nc1nc(=O)n([C@H]2O[C@@H](CO)[C@H](O)[C@H]2F)cc1Cl [L-FAC1C, β-L-2′-fluoroarabinofuranosyl-5-chlorocytidine] as the molecule, how does the “effect with respect to HBV replication” value (HBV replication) read?
A: ineffective or sparingly effective

Q: Which EC50 [1, 2] does the source give for Cc1cn([C@@H]2CC[C@H](CO)O2)c(=O)nc1N [β-L-ddMetC, β-L-2′,3′-dideoxy-5-methylcytidine] here?
A: > 20000 nM

Q: For Nc1nc(=O)n([C@H]2CC[C@@H](CO)O2)cc1F [L-FddC, β-L-2′,3′-dideoxy-5-fluorocytidine], which “effect with respect to HBV replication” value (HBV replication) is on record?
A: equally effective

Q: Which IC50 (HBV DNA polymerase) does the source give for Nc1ccn([C@@H]2CS[C@H](COP(=O)(O)OP(=O)(O)OP(=O)(O)O)O2)c(=O)n1 [Triphosphate of 3TC, reference compound] here?
A: 300 nM

Q: Which IC50 (HBV DNA polymerase) does the source give for Cc1cn([C@@H]2C[C@@H](N=[N+]=[N-])[C@H](COP(=O)(O)OP(=O)(O)OP(=O)(O)O)O2)c(=O)nc1N [Triphosphate of β-L-N3MetCdR] here?
A: 800 nM

Q: Which IC50 (HBV DNA polymerase) does the source give for Cc1cn([C@@H]2C=C[C@H](COP(=O)(O)OP(=O)(O)OP(=O)(O)O)O2)c(=O)nc1N [Triphosphate of β-L-ddeMetCdR] here?
A: 6200 nM

Q: For Cc1cn([C@H]2O[C@@H](COP(=O)(O)OP(=O)(O)OP(=O)(O)O)[C@H](O)[C@H]2O)c(=O)nc1N [Triphosphate of β-L-AraMetC], which IC50 (HBV DNA polymerase) is on record?
A: 10800 nM

Q: Which “effect with respect to HBV replication” value (HBV replication) does the source give for Cc1cn(C2CSC(CO)O2)c(=O)nc1N [β-L-2′,3′-dideoxy-3′-thia-5-methylcytidine] here?
A: ineffective or sparingly effective

Q: Which “Cytotoxicity (CD50), concentration resulting in 50% inhibition of proliferation” value (HL-60 cells) does the source give for Cc1cn([C@@H]2C[C@@H](N=[N+]=[N-])[C@H](CO)O2)c(=O)nc1N [β-L-N3MetCdR, β-L-3′-azido-2′,3′-dideoxy-5-methylcytidine] here?
A: 2000

Q: And the “Cytotoxicity (CD50), concentration resulting in 50% inhibition of proliferation” value (HepG2 cells)?
A: >2000

Q: What about the EC50 [1, 2] of the same molecule?
A: 350 to 950 nM

Q: With Nc1nc(=O)n([C@H]2C[C@H](O)[C@@H](CO)O2)cc1Cl [CldC, β-L-deoxy-5-chlorocytidine] as the molecule, how does the “effect with respect to HBV replication” value (HBV replication) read?
A: ineffective or sparingly effective

Q: For α-interferon, which “proportion of the patients in whom it is effective” value (HBV infections) is on record?
A: about 33%

Q: Which “effect with respect to HBV replication” value (HBV replication) does the source give for Cc1cn([C@@H]2C[C@@H](F)[C@H](CO)O2)c(=O)nc1N [β-L-2′,3′-dideoxy-3′-fluoro-5-methylcytidine] here?
A: ineffective or sparingly effective

Q: With Cc1cn([C@H]2O[C@@H](CO)[C@H](O)[C@H]2O)c(=O)nc1N [β-L-AraMetC, 1-β-L-arabinofuranosyl-5-methylcytosine] as the molecule, how does the “Cytotoxicity (CD50), concentration resulting in 50% inhibition of proliferation” value (HL-60 cells) read?
A: >2000

Q: And the “Cytotoxicity (CD50), concentration resulting in 50% inhibition of proliferation” value (HepG2 cells)?
A: >2000

Q: And the EC50 ([1]; Hepatitis B virus, HepG2 2.2.15, 216 h)?
A: > 20000 nM

Q: Which “effect with respect to HBV replication” value (HBV replication) does the source give for Nc1nc(=O)n([C@H]2O[C@@H](CO)[C@H](O)[C@H]2O)cc1F [L-AraFC, β-L-arabinofuranosyl-5-fluorocytosine] here?
A: no effect

Q: Which EC50 ([1]; Hepatitis B virus, 216 h, HepG2 2.2.15 cells, extracellular HBV DNA by PCR, after 9 days of incubation) does the source give for Nc1ccn([C@@H]2CS[C@H](CO)O2)c(=O)n1 [3TC, β-L-2′,3′-dideoxy-3′-thiacytidine, reference compound] here?
A: 100 to 200 nM

Q: With Nc1nc(=O)n([C@H]2O[C@@H](CO)[C@H](O)[C@H]2F)cc1F [L-FAFC, β-L-2′-fluoroarabinofuranosyl-5-fluorocytosine] as the molecule, how does the “effect with respect to HBV replication” value (HBV replication) read?
A: no effect

Q: For Nc1nc(=O)n([C@@H]2C=C[C@H](CO)O2)cc1F [L-FddeC, β-L-2′,3′-dideoxy-2′,3′-didehydro-5-fluorocytidine], which “effect with respect to HBV replication” value (HBV replication) is on record?
A: more effective

Q: Which “effect with respect to HBV replication” value (HBV replication) does the source give for Nc1nc(=O)n(C2CSC(CO)O2)cc1Cl [β-L-2′,3′-dideoxy-3′-thia-5-chlorocytidine] here?
A: ineffective or sparingly effective

Q: For Cc1cn([C@@H]2CC[C@H](COP(=O)(O)OP(=O)(O)OP(=O)(O)O)O2)c(=O)nc1N [Triphosphate of β-L-ddMetCdR], which IC50 (HBV DNA polymerase) is on record?
A: 6500 nM

Q: With Cc1cn([C@@H]2C=C[C@H](CO)O2)c(=O)nc1N [β-L-ddeMetC, β-L-2′,3′-didehydro-2′,3′-dideoxy-5-methylcytidine] as the molecule, how does the “Cytotoxicity (CD50), concentration resulting in 50% inhibition of proliferation” value (HL-60 cells) read?
A: 600

Q: What about the “Cytotoxicity (CD50), concentration resulting in 50% inhibition of proliferation” value (HepG2 cells) of the same molecule?
A: 1500

Q: What about the EC50 [1, 2] of the same molecule?
A: > 20000 nM

Q: With Nc1nc(=O)n(C2CSC(CO)O2)cc1Br [β-L-2′,3′-dideoxy-3′-thia-5-bromocytidine] as the molecule, how does the “effect with respect to HBV replication” value (HBV replication) read?
A: ineffective or sparingly effective

Q: With Cc1cn([C@@H]2C[C@@H](O)[C@H](COP(=O)(O)OP(=O)(O)OP(=O)(O)O)O2)c(=O)nc1N [Triphosphate of β-L-MetCdR] as the molecule, how does the IC50 (HBV DNA polymerase) read?
A: 900 nM

Q: For Nc1nc(=O)n([C@H]2O[C@@H](CO)[C@H](O)[C@H]2F)cc1Br [L-FABrC, β-L-2′-fluoroarabinofuranosyl-5-bromocytosine], which “effect with respect to HBV replication” value (HBV replication) is on record?
A: ineffective or sparingly effective

Q: Which “Cytotoxicity (CD50), concentration resulting in 50% inhibition of proliferation” value (HL-60 cells) does the source give for Cc1cn([C@@H]2C[C@@H](O)[C@H](CO)O2)c(=O)nc1N [β-L-MetCdR, β-L-5-methyldeoxycytidine] here?
A: >2000

Q: And the “Cytotoxicity (CD50), concentration resulting in 50% inhibition of proliferation” value (HepG2 cells)?
A: >2000

Q: And the EC50 [1, 2]?
A: 270 to 600 nM

Q: Which “effect with respect to HBV replication” value (HBV replication) does the source give for Nc1nc(=O)n([C@H]2C[C@H](O)[C@@H](CO)O2)cc1F [FdC, β-L-deoxy-5-fluorocytidine] here?
A: less effective
